# Measured values as given in ChEMBL document CHEMBL5528044, “Exploring the Function of (+)-Naltrexone Precursors: Their Activity as TLR4 Antagonists and Potential in Treating Morphine Addiction” (J Med Chem, 2024).
# The source made the active and inactive calls. No cut-off for these calls is given here.
# Assays:
# [1] = biological target: T1, Toll-like receptor 4 (Mus musculus, UniProt Q9QUK6); experiment: Antagonist activity at TLR4 in mouse BV-2 cells assessed as inhibition of LPS-induced NO overproduction incubated for 24 hrs by 2,3-diaminonaphthalene reagent based microplate reader analysis; type: cell-based
# T1 sequence (Q9QUK6 whole entry): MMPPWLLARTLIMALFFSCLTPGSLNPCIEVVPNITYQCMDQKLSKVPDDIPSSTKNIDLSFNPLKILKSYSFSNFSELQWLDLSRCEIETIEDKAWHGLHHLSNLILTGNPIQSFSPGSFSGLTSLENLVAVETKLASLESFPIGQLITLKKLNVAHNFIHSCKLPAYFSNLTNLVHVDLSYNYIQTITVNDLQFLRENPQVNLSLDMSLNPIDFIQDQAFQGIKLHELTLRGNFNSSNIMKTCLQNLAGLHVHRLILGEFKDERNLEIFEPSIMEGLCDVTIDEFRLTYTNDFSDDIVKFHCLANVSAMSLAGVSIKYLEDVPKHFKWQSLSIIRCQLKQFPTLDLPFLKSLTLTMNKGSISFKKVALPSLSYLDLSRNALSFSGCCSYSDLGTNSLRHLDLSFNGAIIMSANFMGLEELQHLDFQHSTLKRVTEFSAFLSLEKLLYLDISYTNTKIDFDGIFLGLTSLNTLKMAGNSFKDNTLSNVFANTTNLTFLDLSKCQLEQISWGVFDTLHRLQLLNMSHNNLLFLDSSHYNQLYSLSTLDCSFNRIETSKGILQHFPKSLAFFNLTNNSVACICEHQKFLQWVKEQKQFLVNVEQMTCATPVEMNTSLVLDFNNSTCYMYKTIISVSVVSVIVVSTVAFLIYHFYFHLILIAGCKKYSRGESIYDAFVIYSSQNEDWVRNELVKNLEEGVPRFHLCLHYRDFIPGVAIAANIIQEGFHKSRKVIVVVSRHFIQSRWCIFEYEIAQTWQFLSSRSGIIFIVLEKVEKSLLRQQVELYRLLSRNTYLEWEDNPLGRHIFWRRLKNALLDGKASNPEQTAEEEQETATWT
# [2] = Clearance in Balb/c mouse at 2 mg/kg,iv administration and measured upto 24 hrs by LC-MS/MS analysis; type: ADME, organism-based; details: in vivo
# [3] = Cmax in Balb/c mouse at 20 mg/kg,po administration and measured upto 24 hrs by LC-MS/MS analysis; type: ADME, organism-based; details: in vivo
# [4] = biological target: T2, Toll-like receptor 4 (Mus musculus) (UniProt Q9QUK6); experiment: Antagonist activity at TLR4 in mouse BV-2 cells assessed as inhibition of LPS-induced NF-kappaB activation at 4 uM incubated for 24 hrs by dual-glo luciferase assay; type: cell-based; details: filed as antagonist
# T2 sequence (whole entry): T1 sequence (Q9QUK6 whole entry)
# [5] = biological target: T2, Toll-like receptor 4 (Mus musculus); experiment: Antagonist activity at TLR4 signaling pathway in mouse BV-2 cells assessed as downregulation of LPS-induced IKKalpha phosphorylation at 5 uM incubated for 1 hr by Western blot analysis; type: cell-based; details: filed as antagonist
# [6] = biological target: T2, Toll-like receptor 4 (Mus musculus); experiment: Antagonist activity at TLR4 signaling pathway in mouse BV-2 cells assessed as downregulation of LPS-induced ERK phosphorylation at 5 uM incubated for 1 hr by Western blot analysis; type: cell-based; details: filed as antagonist
# [7] = tested on: Mus musculus; experiment: Inhibition of morphine-induced addiction behavior in Balb/c mouse assessed as decrease in morphine-induced behavioral sensitization during induction phase at 0.005 to 0.2 mg/kg,ip administrated on day 4 to 10 by open-field test; type: functional, organism-based; details: dose 0.005-0.2 mg/kg, time 7.0 day
# [8] = Toxicity in morphine-induced Balb/c mouse assessed body weight loss at 0.2 mg/kg,ip administrated for 1 week and measured on day 15; type: organism-based; details: in vivo, 360 h, time 15 day
# [9] = tested on: Mus musculus; experiment: Inhibition of chronic morphine-induced microglia activation in Balb/c mouse assessed as reduction in Iba1 expression in brain medial prefrontal cortex region at 0.2 mg/kg,ip administrated for 6 consecutive days by immunofluorescence staining based analysis; type: functional, organism-based
# [10] = tested on: Mus musculus; experiment: Inhibition of chronic morphine-induced microglia activation in Balb/c mouse assessed as reduction in Iba1 expression in nucleus accumbens region at 0.2 mg/kg,ip administrated for 6 consecutive days by immunofluorescence staining based analysis; type: functional, organism-based
# [11] = tested on: Mus musculus; experiment: Inhibition of chronic morphine-induced microglia activation in Balb/c mouse assessed as reduction in TNF-alpha mRNA expression in brain ventral tegmental area region at 0.2 mg/kg,ip administrated for 6 consecutive days by qPCR analysis; type: functional, organism-based
Structure (SMILES),IC50 [1] [nM],clearance [2] [mL/min/kg],Cmax [3] [ng/mL],Activity [4],Activity [5],Activity [6],inhibition [7],Activity [8],inhibition [9],inhibition [10],inhibition [11]
"CN1CC[C@@]23c4c5ccc(O)c4O[C@@H]2C(=O)C=C[C@]3(O)[C@@H]1C5 (single isomer, unassigned)",1000,469,51.5,Active,Active,Active,Dose-Dependent Effect,Non-Toxic,Active,Active,Active
"COc1ccc2c3c1O[C@@H]1C(=O)C=C[C@]4(O)[C@H](C2)N(C)CC[C@@]314 (single isomer, unassigned)",1300,–,25,Active,Active,Active,Dose-Dependent Effect,Non-Toxic,Active,Active,Active
